In patent publication US5473039A, “Polypeptide analogs of apolipoprotein E, diagnostic systems and methods using the analogs” (The Scripps Research Institute, priority 1991, dated 1995):

Assays:
scavenger receptor = experiment: 125I-aLDL degradation by PMA-stimulated THP-1 cells; format: cell-based, human
Method: To verify that the inhibition of LDL degradation was specific for the LDL receptor, the effect of the tandem peptide on scavenger receptor processing of acetylated LDL (aLDL) was tested.
THP-1 cells (5×10^5 in 1.0ml of DMEM medium per 16 mm culture dish) were stimulated with PMA (10^-7 M) for 4 days. LDL was acetylated (Hara, H. et al., Biochem. Biophys. Res. Comm., 146(2):802-808, 1987) and then radio-labeled as described in Example 8 to a specific activity of 300-500 cpm/ng resulting in ^125 I-aLDL that was greater than 99% precipitable by 10% TCA. The cells were washed with PBS and the assay performed in DMEM medium supplemented with 1% Nutridoma-HU plus 25 μg/ml of ^125 I-aLDL. After 5 hr at 37° C., the supernatants were removed from the wells and extracted with 10% TCA. The B/B0 ratios were analyzed as described above. The results are depicted in FIG. 1B.

[1] = system: Human peripheral blood mononuclear (PBM) cells; experiment: PHA-stimulated PBM cell proliferation in serum-free CFBI medium; format: cell-based
Method: In these studies, human peripheral blood mononuclear (PBM) cells were isolated and assayed for phytohemagglutinin (PHA)-stimulated proliferation as described by Pepe et al (J. Immunol., 136:3716-3723, 1986) except that the cells were resuspended and cultured in a serum-free and protein-free CFBI medium as described by Shive et al, Proc. Natl. Acad. Sci. […] After 48 h the cultures were pulsed for 18 h with […] of [^3 H]-methylthymidine and harvested onto glass fiber filters. Radioactivity of the filters was counted in a Beckman liquid scintillation counter. […] The average biological activity of each polypeptide for inhibiting lymphocyte […] proliferation is shown in Table 6, and is expressed as an average specific activity, which is the peptide concentration that causes a 50% reduction in activity.

LDL receptor = LDL receptor (Homo sapiens, UniProt P01130); experiment: 125I-LDL degradation by unstimulated THP-1 cells; format: cell-based; design: In the undifferentiated state THP-1 cells express LDL receptors that are regulated by the lipoprotein content of the culture medium; host or cells: THP-1 cells (unstimulated)
Chain of LDL receptor (P01130 22-860): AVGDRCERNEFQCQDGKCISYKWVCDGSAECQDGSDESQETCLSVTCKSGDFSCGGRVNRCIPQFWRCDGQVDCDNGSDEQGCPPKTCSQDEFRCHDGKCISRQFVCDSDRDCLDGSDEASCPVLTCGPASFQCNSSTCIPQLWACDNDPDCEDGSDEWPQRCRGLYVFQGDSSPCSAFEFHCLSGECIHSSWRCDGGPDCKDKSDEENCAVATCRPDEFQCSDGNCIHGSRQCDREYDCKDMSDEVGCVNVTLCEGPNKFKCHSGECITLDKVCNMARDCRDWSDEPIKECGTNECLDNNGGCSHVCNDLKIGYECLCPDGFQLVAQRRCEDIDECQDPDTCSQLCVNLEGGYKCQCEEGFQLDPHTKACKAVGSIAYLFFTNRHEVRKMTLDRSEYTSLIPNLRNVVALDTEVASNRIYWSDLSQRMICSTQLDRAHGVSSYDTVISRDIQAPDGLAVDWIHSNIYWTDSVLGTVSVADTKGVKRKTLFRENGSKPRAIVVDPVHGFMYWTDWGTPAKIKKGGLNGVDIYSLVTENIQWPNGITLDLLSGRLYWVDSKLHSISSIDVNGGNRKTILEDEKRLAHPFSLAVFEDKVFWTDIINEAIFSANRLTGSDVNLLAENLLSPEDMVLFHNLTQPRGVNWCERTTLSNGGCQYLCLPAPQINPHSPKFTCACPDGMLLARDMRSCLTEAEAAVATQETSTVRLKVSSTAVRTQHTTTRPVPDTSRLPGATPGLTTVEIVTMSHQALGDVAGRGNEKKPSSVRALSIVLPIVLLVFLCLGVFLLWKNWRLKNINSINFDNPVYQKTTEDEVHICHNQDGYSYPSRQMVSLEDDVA
Text: THP-1 cells were acquired from American Type Culture Collection and cultured in serum-free RPMI-1640 medium supplemented with 1% Nutridoma-HU for 48 hr to upregulate the LDL receptors. LDL was isolated by ultracentrifugation and radiolabeled using the iodine monochloride method as described in Example 8 to a specific activity 200-300 cpm/ng. Greater than 99% of the ^125 I-LDL ligand was precipitable by 10% TCA. The peptides indicated in FIGS. 1A and 1B were synthesized, as described in Example 1, purified to >95% by high pressure liquid chromatography and the amino acid composition verified. All peptides were solubilized in PBS. "AI 74-105"is a control peptide derived from residues 74-105 of apolipoprotein AI, "Monomer" is p(141-155), "Tandem Peptide" is p(141-155)2, "LDL" is unlabelled LDL, and "aLDL" is acetylated LDL.
Binding and degradation of LDL was evaluated as the disappearance of acid soluble ^125 I-LDL radioactivity from the incubation over a 5-hour incubation at 37C. Various concentrations of unlabeled LDL or tandem apo E peptide were coincubated with the ^125 I-LDL to determine their effects on binding and degradation.
For assay, 5×10^5 THP-1 cells in 0.5ml DMEM were co-incubated in a 1.5ml microfuge tube with 2-5 μg/ml of ^125 I-LDL at 37° C. in the presence of various concentrations of competitors indicated in FIGS. 1A and 1B. After 5 hr the cells were pelleted at 5000 x g, the supernatants were removed and the supernatants were extracted with 10% TCA and counted to form a TCA soluble cpm. The results were expressed as B/Bo where B equals the total TCA soluble cpm in supernatant collected in the presence of LDL or peptide and Bo equals the total TCA soluble cpm in supernatant of phosphate buffered saline (PBS) treated control cells. Each point is the average of 4 replicates with standard error of the mean (SEM),10%.

- molar excess compared with LDL required to achieve 50% inhibition of degradation (LDL receptor): ~200 fold
- inhibition at 12.5 µM (LDL receptor; THP-1, 12.5 uM): 80%
- effect on LDL degradation by THP-1 cells (LDL receptor; low concentrations of the tandem peptide): significant enhancement
- IC50 (LDL receptor; read-out: concentration inhibiting 125I-LDL degradation by 50%): 5 µM
SMILES: CC(C)C[C@H](NC(=O)[C@H](CC(=O)O)NC(=O)[C@H](CC(=O)O)NC(=O)[C@H](C)NC(=O)[C@H](CC(=O)O)NC(=O)[C@H](CCCNC(=N)N)NC(=O)[C@H](CC(C)C)NC(=O)[C@H](CC(C)C)NC(=O)[C@H](CCCNC(=N)N)NC(=O)[C@H](CCCCN)NC(=O)[C@H](CCCNC(=N)N)NC(=O)[C@H](CC(C)C)NC(=O)[C@H](CCCCN)NC(=O)[C@H](CCCNC(=N)N)NC(=O)[C@H](CC(C)C)NC(=O)[C@H](CC(C)C)NC(=O)[C@H](CC(=O)O)NC(=O)[C@H](CC(=O)O)NC(=O)[C@H](C)NC(=O)[C@H](CC(=O)O)NC(=O)[C@H](CCCNC(=N)N)NC(=O)[C@H](CC(C)C)NC(=O)[C@H](CC(C)C)NC(=O)[C@H](CCCNC(=N)N)NC(=O)[C@H](CCCCN)NC(=O)[C@H](CCCNC(=N)N)NC(=O)[C@H](CC(C)C)NC(=O)[C@H](CCCCN)NC(=O)[C@H](CCCNC(=N)N)NC(=O)[C@@H](N)CC(C)C)C(=O)O [p(141-155)2]
- effect on 125I-aLDL degradation (scavenger receptor; listed as tandem apo E peptide): no effect
- effect on 125I-aLDL degradation (scavenger receptor; listed as tandem peptide): Neither LDL or tandem peptide inhibited
- biologic activity (inhibition of lymphocyte proliferation) [1]: loss of biologic activity
- peptide concentration above which uptake of tritiated thymidine / lymphocyte proliferation was inhibited [1]: above 4 uM
- IC50 ([1]; read-out: Average Specific Activity (peptide concentration that causes a 50% reduction in activity)): 4.8 ± 1.1 µM
